Common to all, as to assay: luciferase reporter transactivation in HEK293 cells
Holding throughout (type): cell-based
(In general: Reporter assays use an easily measured gene product as a stand-in for the process of interest.)

Test [1] deals with T1, FLAG-tagged wild-type elephant shark GR (Callorhinchus milii, UniProt A0A4W3H7L4).
T1 construct: full-length, N-terminal FLAG tag, transiently expressed in HEK293 cells
T1 sequence (A0A4W3H7L4 1-704): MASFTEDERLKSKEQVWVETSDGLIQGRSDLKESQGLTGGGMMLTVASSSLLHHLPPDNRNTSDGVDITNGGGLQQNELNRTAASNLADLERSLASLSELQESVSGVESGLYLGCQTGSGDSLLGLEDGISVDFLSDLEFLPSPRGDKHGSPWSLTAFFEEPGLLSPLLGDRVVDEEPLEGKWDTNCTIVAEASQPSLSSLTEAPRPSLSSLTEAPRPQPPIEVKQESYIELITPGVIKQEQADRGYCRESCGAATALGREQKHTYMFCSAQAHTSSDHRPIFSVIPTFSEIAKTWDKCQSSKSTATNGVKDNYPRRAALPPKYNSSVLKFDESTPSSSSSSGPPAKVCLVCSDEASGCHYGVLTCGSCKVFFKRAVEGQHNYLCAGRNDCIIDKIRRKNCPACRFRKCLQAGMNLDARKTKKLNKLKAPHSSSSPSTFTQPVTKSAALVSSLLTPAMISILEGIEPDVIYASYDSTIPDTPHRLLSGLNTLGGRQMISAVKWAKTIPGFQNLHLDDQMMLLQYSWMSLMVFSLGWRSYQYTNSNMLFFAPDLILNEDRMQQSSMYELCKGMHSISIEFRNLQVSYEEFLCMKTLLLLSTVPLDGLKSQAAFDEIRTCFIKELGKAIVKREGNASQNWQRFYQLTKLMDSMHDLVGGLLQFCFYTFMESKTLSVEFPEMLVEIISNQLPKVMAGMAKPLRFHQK
The text has this:
(§1) luciferase reporter transactivation in HEK293 cells on FLAG-tagged wild-type elephant shark GR

Test [2] addresses T2, FLAG-tagged wild-type elephant shark MR (Callorhinchus milii, UniProt A0A4W3I5J5).
T2 construct: gene nr3c2; full-length, N-terminal FLAG tag, transiently expressed in HEK293 cells
Particulars: MMTV-luc promoter; agonist; 37 C. An excerpt: luciferase reporter transactivation in HEK293 cells on FLAG-tagged wild-type elephant shark MR

The target in test [3] is T3, FLAG-tagged wild-type elephant shark GR (Callorhinchus milii, UniProt A0A4W3H7L4).
T3 construct: full-length, N-terminal FLAG tag, transiently expressed in HEK293 cells
The conditions noted are these: MMTV-luc promoter; agonist; 37 C.
Text: as §1

Where two headings read alike, the source gives them in different places.

T2 sequence (A0A4W3I5J5 entry or part of it): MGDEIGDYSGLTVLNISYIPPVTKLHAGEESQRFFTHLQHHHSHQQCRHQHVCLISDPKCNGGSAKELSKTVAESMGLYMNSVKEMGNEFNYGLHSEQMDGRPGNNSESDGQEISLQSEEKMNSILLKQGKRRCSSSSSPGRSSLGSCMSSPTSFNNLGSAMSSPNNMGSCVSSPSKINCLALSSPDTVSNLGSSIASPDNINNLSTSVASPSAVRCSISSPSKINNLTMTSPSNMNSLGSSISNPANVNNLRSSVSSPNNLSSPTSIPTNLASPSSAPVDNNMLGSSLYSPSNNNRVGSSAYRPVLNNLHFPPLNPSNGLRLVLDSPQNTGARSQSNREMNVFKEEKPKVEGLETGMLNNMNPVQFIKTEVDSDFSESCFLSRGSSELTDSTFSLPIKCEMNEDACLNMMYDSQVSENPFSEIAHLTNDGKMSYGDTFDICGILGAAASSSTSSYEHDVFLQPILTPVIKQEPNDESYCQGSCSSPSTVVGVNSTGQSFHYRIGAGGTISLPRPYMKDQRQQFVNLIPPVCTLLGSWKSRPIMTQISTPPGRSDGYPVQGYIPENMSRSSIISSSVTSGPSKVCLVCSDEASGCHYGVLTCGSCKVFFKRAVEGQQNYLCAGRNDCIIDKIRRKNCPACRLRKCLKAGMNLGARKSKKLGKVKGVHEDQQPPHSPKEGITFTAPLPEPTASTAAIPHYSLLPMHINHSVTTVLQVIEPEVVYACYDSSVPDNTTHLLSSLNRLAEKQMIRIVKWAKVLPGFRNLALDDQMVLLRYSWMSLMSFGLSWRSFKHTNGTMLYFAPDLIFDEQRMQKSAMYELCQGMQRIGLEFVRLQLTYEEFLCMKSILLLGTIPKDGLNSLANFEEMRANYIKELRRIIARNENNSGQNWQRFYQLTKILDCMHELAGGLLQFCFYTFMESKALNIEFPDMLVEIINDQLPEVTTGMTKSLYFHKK

The EC50 is the midpoint of the concentration-response curve. In turn, `C[C@]12CCC(=O)C=C1CC[C@@H]1[C@@H]2[C@@H](O)C[C@]2(C=O)[C@@H](C(=O)CO)CC[C@@H]12` [Aldo, aldosterone] had an EC50 in test [1] of 14.1 nM.

The molecule `C[C@]12C[C@H](O)[C@H]3[C@@H](CCC4=CC(=O)CC[C@@]43C)[C@@H]1CC[C@@H]2C(=O)CO` [CORT, Corticosterone] registered an EC50 in test [1] of 6 nM. Against the preceding molecule, the EC50 is about 2.4-fold lower.

In the case of `C[C@]12CCC(=O)C=C1CC[C@@H]1[C@@H]2[C@@H](O)C[C@@]2(C)[C@H]1CC[C@]2(O)C(=O)CO` [Cortisol], the concentration for a half-maximal effect (EC50) is 0.5 nM in test [2], 13.9 nM in test [3] and 25.2 nM in test [1].

As to `C[C@]12CC[C@H]3[C@@H](CCC4=CC(=O)CC[C@@]43C)[C@@H]1CC[C@@H]2C(=O)CO` [DOC, 11-deoxycorticosterone], the EC50 in test [1] was found to be 13 nM.

For `C[C@]12CCC(=O)C=C1CC[C@@H]1[C@@H]2CC[C@@]2(C)[C@H]1CC[C@]2(O)C(=O)CO` [S, 11-deoxycortisol], a half-maximal effect in test [2] (EC50) was put at 0.13 nM.

These data come from paper PMC10446182, “Reduced steroid activation of elephant shark GR and MR after inserting four amino acids from the DNA-binding domain of lamprey corticoid receptor-1” (PLOS ONE, 2023).
